Test results as given in US20260001898A1, “Heteroaryl compounds as inhibitors of TYK2/JAK1, composition and application thereof” (Accro Bioscience (HK) Limited, priority 2022, published 2026).

Test system: IFNα induced TYK2/JAK1 mediated STAT activation
Assay: Luciferase assay in L929 ISRE cells stimulated with IFN-α
Assay type: cell-based
Settings: Mus musculus, IFN-α 100 ng/mL; for inhibition at 0.05 µM: 50 nM compound, read-out: Inhibitory activity % (50 nM); for inhibition at 0.2 µM: 200 nM compound, read-out: Inhibitory activity % (200 nM); for inhibition at 1 µM: 1000 nM compound, read-out: Inhibitory activity % (1000 nM)
Method: • 1. L929 ISRE cells (5000 cells/well) were seeded on 96-well plates and incubated overnight at room temperature-; • 2. The cells were pretreated by adding different concentrations (10 nM, 50 nM, 100 nM, 200 nM or 1000 nM) of the test compounds for 2 hours; • 3. Added IFN-α (100 ng/mL) to stimulate cells for 6 hours; • 4. Removed the upper medium, add PBS (100 μL) and washed, then removed PBS; • 5. Added PLB lysis solution (50 μL) to each well, shook the well for 15 minutes; • 6. Transferred PLB lysis solution (30 μL) to a new 96-well whiteboard, added LAR II reagent (LAR II), then quickly read the 450 nm OD value with a plate washer; • 7. Added Stop & Glo reagent (30 μL), then read the 450 nm OD value using the plate washer. • 8. The final result was the OD value in step 6/OD value in step 7.

| Structure (SMILES) | inhibition at 0.05 µM | inhibition at 0.2 µM | inhibition at 1 µM |
| --- | --- | --- | --- |
| COc1c(Nc2cc(NC(=O)C3CC3)nnc2C(N)=O)ncnc1-c1cc(P(=O)(C2CC2)C2CC2)n(C)n1 [Compound A3, 6-(cyclopropanecarboxamido)-4-((6-(5-(dicyclopropylphosphoryl)-1-methyl-1H-pyrazol-3-yl)-5-methoxypyrimidin-4-yl)amino)pyridazine-3-carboxamide] | 34% | 39% | 71% |
| COc1c(Nc2cc(Nc3ccccn3)nnc2C(N)=O)cccc1-c1cc(P(=O)(C2CC2)C2CC2)n(C)n1 [Compound A4, 4-((3-(5-(dicyclopropylphosphoryl)-1-methyl-1H-pyrazol-3-yl)-2-methoxyphenyl)amino)-6-(pyridin-2-ylamino)pyridazine-3-carboxamide] | 61% | 93% | 99% |
| COc1ccc(Nc2cc(Nc3cccc(-c4cc(P(=O)(C5CC5)C5CC5)n(C)n4)c3OC)c(C(N)=O)nn2)nc1 [Compound A5] | 91% | 97% | 99% |
| CCP(=O)(CC)c1cc(-c2cccc(Nc3cc(NC(=O)C4CC4)nnc3C(N)=O)c2OC)nn1C [Compound A6, 6-(cyclopropanecarboxamido)-4-((3-(5-(diethylphosphoryl)-1-methyl-1H-pyrazol-3-yl)-2-methoxyphenyl)amino)pyridazine-3-carboxamide] | 23% | 28% | 96% |
| COc1c(Nc2cc(NC(=O)C3CC3)nnc2C(N)=O)cccc1-c1ncc(P(C)(C)=O)cn1 [Compound A7, 6-(cyclopropanecarboxamido)-4-((3-(5-(dimethylphosphoryl)pyrimidin-2-yl)-2-methoxyphenyl)amino)pyridazine-3-carboxamide] | 18% | 25% | 64% |
| COc1c(Nc2cc(N3CCCC3)nnc2C(N)=O)cccc1-c1cc(P(=O)(C2CC2)C2CC2)n(C)n1 [Compound A11, 4-((3-(5-(dicyclopropylphosphoryl)-1-methyl-1H-pyrazol-3-yl)-2-methoxyphenyl)amino)-6-(pyrrolidin-1-yl)pyridazine-3-carboxamide] | 6% | 86% | 95% |
| COc1c(-c2cc(P(=O)(C3CC3)C3CC3)n(C)n2)ccnc1Nc1cc(N)nnc1C(N)=O [Compound A13, 6-Amino-4-((4-(5-(dicyclopropylphosphoryl)-1-methyl-1H-pyrazol-3-yl)-3-methoxypyridin-2-yl)amino)pyridazine-3-carboxamide] | 9% | 71% | 95% |
| CCP(=O)(CC)c1cnc(-c2cccc(Nc3cc(NC(=O)C4CC4)nnc3C(N)=O)c2OC)nc1 [Compound A14] | – | 23% | 76% |
| COc1c(-c2cc(P(=O)(C3CC3)C3CC3)n(C)n2)ccnc1Nc1cc(NC(=O)C2CC2)nnc1C(N)=O [Compound A18, 6-(cyclopropanecarboxamido)-4-((4-(5-(dicyclopropylphosphoryl)-1-methyl-1H-pyrazol-3-yl)-3-methoxypyridin-2-yl)amino)pyridazine-3-carboxamide] | 62% | 79% | 79% |
| COc1c(Nc2nc(NC(=O)C3CC3)ncc2C(N)=O)cccc1-c1cc(P(=O)(C2CC2)C2CC2)n(C)n1 [Compound A19, 2-(cyclopropanecarboxamido)-4-((3-(5-(dicyclopropylphosphoryl)-1-methyl-1H-pyrazol-3-yl)-2-methoxyphenyl)amino)pyrimidine-5-carboxamide] | – | 28% | 71% |
| CNC(=O)Nc1cc(Nc2cccc(-c3cc(P(=O)(C4CC4)C4CC4)n(C)n3)c2OC)c(C(N)=O)nn1 [Compound A21] | 16% | 39% | 74% |
| COC(=O)Nc1cc(Nc2cccc(-c3cc(P(=O)(C4CC4)C4CC4)n(C)n3)c2OC)c(C(N)=O)nn1 [Compound A23] | – | 38% | 85% |
| [2H]C([2H])([2H])n1nc(-c2cccc(Nc3cc(NC(=O)C4CC4)nnc3C(N)=O)c2OC)cc1P(=O)(C1CC1)C1CC1 [Compound A24, 6-(cyclopropanecarboxamido)-4-((3-(5-(dicyclopropylphosphoryl)-1-(methyl-d3)-1H-pyrazol-3-yl)-2-methoxyphenyl)amino)pyridazine-3-carboxamide] | 39% | 90% | 95% |
| COc1c(Nc2cc(Nc3ccccn3)nnc2C(N)=O)cccc1-c1cc(P(C)(C)=O)n(C)n1 [Compound A26] | – | – | 80% |
| COc1ccc(Nc2cc(Nc3cccc(-c4cc(P(C)(C)=O)n(C)n4)c3OC)c(C(N)=O)nn2)nc1 [Compound A30] | 14% | 58% | 90% |
| COc1c(Nc2cc(Nc3ccc(C#N)cn3)nnc2C(N)=O)cccc1-c1cc(P(C)(C)=O)n(C)n1 [Compound A31] | 9% | 54% | 75% |
| COc1c(Nc2cc(Nc3ccc(F)cn3)nnc2C(N)=O)cccc1-c1cc(P(C)(C)=O)n(C)n1 [Compound A33] | 45% | 62% | 81% |

| Structure (SMILES) | inhibition at 0.05 µM | inhibition at 0.2 µM | inhibition at 1 µM |
| --- | --- | --- | --- |
| COc1c(Nc2cc(Nc3cccc(C#N)n3)nnc2C(N)=O)cccc1-c1cc(P(=O)(C2CC2)C2CC2)n(C)n1 [Compound A34] | 17% | 67% | 95% |
| COc1c(Nc2cc(Nc3ncccn3)nnc2C(N)=O)cccc1-c1cc(P(=O)(C2CC2)C2CC2)n(C)n1 [Compound A38] | 36% | 66% | 89% |
| COc1c(Nc2cc(Nc3cnccn3)nnc2C(N)=O)cccc1-c1cc(P(=O)(C2CC2)C2CC2)n(C)n1 [Compound A39] | 59% | 78% | 97% |
| COc1c(Nc2cc(Nc3ccncn3)nnc2C(N)=O)cccc1-c1cc(P(=O)(C2CC2)C2CC2)n(C)n1 [Compound A40] | 61% | 80% | 96% |
| [2H]C([2H])([2H])n1ccc(Nc2cc(Nc3cccc(-c4cc(P(=O)(C5CC5)C5CC5)n(C)n4)c3OC)c(C(N)=O)nn2)n1 [Compound A41] | 55% | 90% | 95% |
| CCn1ccc(Nc2cc(Nc3cccc(-c4cc(P(=O)(C5CC5)C5CC5)n(C)n4)c3OC)c(C(N)=O)nn2)n1 [Compound A42] | 76% | 90% | 92% |
| COc1c(Nc2cc(Nc3ncccc3C#N)nnc2C(N)=O)cccc1-c1cc(P(=O)(C2CC2)C2CC2)n(C)n1 [Compound A43] | 0% | 18% | 64% |
| COc1c(Nc2cc(NC(=O)C3C[C@H]3F)nnc2C(N)=O)cccc1-c1cc(P(=O)(C2CC2)C2CC2)n(C)n1 (stereo partly drawn) [Compound A47] | 8% | 19% | 62% |
| COc1c(Nc2cc(NC(=O)C3CC3)nnc2C(N)=O)cccc1-c1cc(P(=O)(C2CC2)C2CC2)[nH]n1 [Compound A48, 6-(cyclopropanecarboxamido)-4-((3-(5-(dicyclopropylphosphoryl)-1H-pyrazol-3-yl)-2-methoxyphenyl)amino)pyridazine-3-carboxamide] | 17% | 56% | 76% |
| COc1c(Nc2cc(Nc3cc(C)ccn3)nnc2C(N)=O)cc(F)cc1-c1cc(P(C)(C)=O)n(C)n1 [Compound A51, 4-((3-(5-(dimethylphosphoryl)-1-methyl-1H-pyrazol-3-yl)-5-fluoro-2-methoxyphenyl)amino)-6-((4-methylpyridin-2-yl)amino)pyridazine-3-carboxamide] | 55% | 82% | 86% |
| COc1c(Nc2cc(Nc3cc(C)ccn3)nnc2C(N)=O)cccc1-c1cc(P(C)(C)=O)n(C2CC2)n1 [Compound A52] | – | 9% | 63% |
| COc1c(-c2cc(P(C)(C)=O)n(C)n2)ccnc1Nc1cc(Nc2cc(C)ccn2)nnc1C(N)=O [Compound A55, 4-((4-(5-(dimethylphosphoryl)-1-methyl-1H-pyrazol-3-yl)-3-methoxypyridin-2-yl)amino)-6-((4-methylpyridin-2-yl)amino)pyridazine-3-carboxamide] | 34% | 63% | 90% |
| [2H]C([2H])([2H])n1nc(-c2cc(F)cc(Nc3cc(Nc4cc(C)ccn4)nnc3C(N)=O)c2OC)cc1P(C)(C)=O [Compound A56] | 31% | 70% | 95% |
| COc1c(Nc2cc(Nc3cc(C)ccn3)nnc2C(N)=O)cncc1-c1cc(P(C)(C)=O)n(C2CC2)n1 [Compound A58] | – | – | 86% |
| [2H]C([2H])([2H])n1nc(-c2cccc(Nc3cc(Nc4cnccn4)nnc3C(N)=O)c2OC)cc1P(=O)(C1CC1)C1CC1 [Compound A59] | – | – | 86% |
| COc1c(-c2cc(P(C)(C)=O)n(C3CC3)n2)ccnc1Nc1cc(Nc2cc(C)ccn2)nnc1C(N)=O [Compound A60] | – | – | 66% |
